The results in this text go back to US12403154B2, “Administration of sting agonist and checkpoint inhibitors” (Takeda Pharmaceutical Company Limited, priority 2019, dated 2025).

Format in all cases: in vivo
The test system of assay [1] is WEHI-3 mouse myelomonocytic leukemia cell line. As to the kind of experiment: WEHI-3 mouse syngeneic tumor model (Study 3). To be noted: WEHI3 model; vs PBS; time-to-progression (tumor 1000 mm^3); Compound No. 14 0.25 mg/kg IV Day 0, 3, 6; anti-mPD-1 10 mg/kg IP Day 0, 3, 6, 13. The method, then:
WEHI-3 Study 3: WEHI-3 is a mouse myelomonocytic leukemia cell line. WEHI-3 mouse syngeneic tumor model was generated by subcutaneous inoculation with 0.1×10^6 WEHI-3 cells (cell suspension) in approximately 11 weeks old female BALB/c mice (Vital River Laboratory Animal Technology Co., Ltd., Beijing, China) in the flank. When the mean tumor volume reached approximately 60 mm^3, the animals were randomized into one vehicle control and four treatment groups (n=10/group). Mice were then dosed with PBS or Compound No. 14 or anti-mouse PD-1 antibody or Compound No. 14 plus anti-mouse PD-1 antibody over a 21-day period. Tumor growth and body weight were measured twice per week during the treatment and post-treatment periods, and mice were humanely euthanized once they had reached their humane endpoint. […]
(§1) Tumors were measured twice weekly using vernier calipers. Tumor volumes were calculated using standard equation: V=W^2×L/2, where V=volume, W=width, and L=length for the tumor. […] Tumor size and body weight were measured twice a week for the duration of the study. […]
(§2) After the transformation, linear interpolation was used to estimate the time (in days) since randomization each mouse's tumor volume reaches 1000 mm^3. […] In case of a mouse's tumor having not reached 1000 mm^3 at the end of study, the last day the mouse was on study was recorded and right-censored. […]

The test system of assay [2] is L5178-R mouse lymphoma cell line. As to the kind of experiment: L5178-R mouse syngeneic tumor model (Study 2). To be noted: vs PBS, time-to-progression (tumor 1000 mm^3), Compound No. 14 0.25 mg/kg IV Day 0, 3, 6, anti-mPD-1 10 mg/kg IP Day 0, 3, 6. The method, then:
L5178-R Study 2: L5178-R is a mouse lymphoma cell line. L5178-R mouse syngeneic tumor model was generated by subcutaneous inoculation with 0.2×10^6 L5178-R cells (cell suspension) in approximately 12 weeks old female DBA/2 mice (Vital River Laboratory Animal Technology Co., Ltd., Beijing, China) in the flank. When the mean tumor volume reached approximately 65 mm^3, the animals were randomized into one vehicle control and four treatment groups (n=10/group). Mice were then dosed with PBS or Compound No. 14 or anti-mouse PD-1 antibody or Compound No. 14 plus anti-mouse PD-1 antibody at 10 mg/kg (Q3D×3 & QW×3) over a 10-day period. Tumor growth and body weight were measured twice per week during the treatment and post-treatment periods, and mice were humanely euthanized once they had reached their humane endpoint. […]
as §1, §2

The subject of assay [3] is A20 mouse B-cell lymphoma cell line. The assay is described as follows: A20 mouse syngeneic tumor model (Study 1). As to the method: A20 Study 1: A20 is a mouse B-cell lymphoma cell line. A20 mouse syngeneic tumor model was generated by subcutaneous inoculation with 0.4×10^6 A20 cells (cell suspension) in approximately 9 weeks old female BALB/c mice (Vital River Laboratory Animal Technology Co., Ltd., Beijing, China) in the flank. When the mean tumor volume reached approximately 55 mm^3, the animals were randomized into one vehicle control and three treatment groups (n=10/group). Mice were then dosed with PBS or Compound No. 14 or anti-mouse PD-1 antibody or Compound No. 14 plus anti-mouse PD-1 antibody over a 31-day period. Tumor growth and body weight were measured twice per week during the treatment and post-treatment periods, and mice were humanely euthanized once they had reached their humane endpoint. […]
as §1, §2

Assay [4] deals with RM-1 mouse prostate carcinoma cell line. As to the kind of experiment: RM-1 mouse syngeneic tumor model (Study 4). To be noted: RM-1 model; vs PBS; time-to-progression (tumor 1000 mm^3); Compound No. 14 0.25 mg/kg IV Day 0, 3, 6; anti-mPD-1 10 mg/kg IP Day 0, 3, 6, 13. The method, then: RM-1 Study 4: RM-1 is a mouse prostate carcinoma cell line. RM-1 mouse syngeneic tumor model was generated by subcutaneous inoculation with 0.8×10^6 RM-1 cells (cell suspension) in 10 weeks old female C57BL/6 mice (Vital River Laboratory Animal Technology Co., Ltd., Beijing, China) in the flank. When the mean tumor volume reached approximately 60 mm^3, the animals were randomized into one vehicle control and four treatment groups (n=10/group). Mice were then dosed with PBS or Compound No. 14 or anti-mouse PD-1 antibody or Compound No. 14 plus anti-mouse PD-1 antibody over a 19-day period. Tumor growth and body weight were measured twice per week during the treatment and post-treatment periods, and mice were humanely euthanized once they had reached their humane endpoint. […]
as §1, §2

Assay [5] deals with L1210 mouse leukemia cell line. The assay is described as follows: L1210 mouse syngeneic tumor model (Study 5). The conditions noted are these: vs PBS, time-to-progression (tumor 1000 mm^3), Compound No. 14 0.25 mg/kg IV Day 0, 3, 6, anti-mPD-1 10 mg/kg IP Day 0, 3, 6, 13. As to the method:
L1210 Study 5: L1210 is a mouse leukemia cell line. L1210 mouse syngeneic tumor model was generated by subcutaneous inoculation with 0.02×10^6 L1210 cells (cell suspension) in approximately 11 weeks old female DBA/2 mice (Vital River Laboratory Animal Technology Co., Ltd., Beijing, China) in the flank. When the mean tumor volume reached approximately 50 mm^3, the animals were randomized into one vehicle control and four treatment groups (n=10/group). Mice were then dosed with PBS or Compound No. 14 or anti-mouse PD-1 antibody or Compound No. 14 plus anti-mouse PD-1 antibody over a 15-day period. Tumor growth and body weight were measured twice per week during the treatment and post-treatment periods, and mice were humanely euthanized once they had reached their humane endpoint. […]
as §1, §2

Turning to `Nc1ncnc2c1ncn2[C@@H]1O[C@@H]2COP(=O)(S)O[C@@H]3[C@H](O)[C@@H](COP(=O)(S)O[C@H]2[C@H]1F)O[C@H]3n1cc(F)c2c(=O)[nH]cnc21` (stereo partly drawn) [Compound No. 14], the “HR (Weibull)” value came to 0.0487 in assay [1]; 0.544 in assay [2]; 0.104 in assay [3] (A20 model, vs PBS, time-to-progression (tumor 1000 mm^3), Compound No. 14 0.25 mg/kg IV Day 0, 3, 6, anti-mPD-1 10 mg/kg IP Day 0, 3, 6, 13, 20, 27); 0.425 in assay [4]; 0.118 in assay [5]. In assay [3] (A20 study, 31 days, n=10/group), the complete responses result is given as “one”.
